Assay results published in ChEMBL document CHEMBL5465560, “Selectivity Literature for EUbOPEN Chemogenomic Library” (2024).

Legend:
[1] = biological target: Cyclin-dependent kinase 1 (Homo sapiens) (UniProt P06493); test: Selectivity interaction (Kinase panel (KiNativ target engagement assay in Jurkat cells)) EUB0001635a CDK1; assay type: cell-based; conditions: Selectivity number of off-targets 0.0, Selectivity number of targets 233.0, Source Knowledge https://www.sciencedirect.com/science/article/pii/S2451945619300674?via%3Dihub, at 1 µM
[2] = biological target: Tyrosine-protein kinase JAK2 (Homo sapiens, UniProt O60674); test: Selectivity interaction (KinomeScan (DiscoverX)) EUB0000229b JAK2; conditions: at 10 µM
[3] = biological target: T1, Activin receptor type-1B (Homo sapiens) (UniProt P36896); test: Selectivity interaction (KinomeScan (DiscoverX)) EUB0000595a ACVR1B; conditions: at 10 µM
T1 sequence (whole entry): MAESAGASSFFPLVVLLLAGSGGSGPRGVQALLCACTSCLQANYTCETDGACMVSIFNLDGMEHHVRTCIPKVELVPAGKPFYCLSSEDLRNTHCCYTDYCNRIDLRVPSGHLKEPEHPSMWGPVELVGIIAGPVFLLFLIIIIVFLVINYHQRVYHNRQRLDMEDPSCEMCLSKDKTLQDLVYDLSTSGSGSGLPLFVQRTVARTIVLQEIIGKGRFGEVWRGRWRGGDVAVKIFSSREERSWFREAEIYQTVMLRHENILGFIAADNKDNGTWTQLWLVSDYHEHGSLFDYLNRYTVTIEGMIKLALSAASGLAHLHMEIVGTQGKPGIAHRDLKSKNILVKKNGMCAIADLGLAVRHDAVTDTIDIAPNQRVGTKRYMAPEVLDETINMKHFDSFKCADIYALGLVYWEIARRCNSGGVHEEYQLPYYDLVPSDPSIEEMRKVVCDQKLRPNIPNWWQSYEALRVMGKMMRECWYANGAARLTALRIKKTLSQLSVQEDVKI

[4] = biological target: Glycogen synthase kinase-3 alpha (Homo sapiens, UniProt P49840); test: Selectivity interaction (KinomeScan (DiscoverX)) EUB0000595a GSK3A; conditions: at 10 µM
[5] = biological target: Epidermal growth factor receptor (Homo sapiens, UniProt P00533); conditions: at 10 µM
Chain of Epidermal growth factor receptor (P00533 whole entry): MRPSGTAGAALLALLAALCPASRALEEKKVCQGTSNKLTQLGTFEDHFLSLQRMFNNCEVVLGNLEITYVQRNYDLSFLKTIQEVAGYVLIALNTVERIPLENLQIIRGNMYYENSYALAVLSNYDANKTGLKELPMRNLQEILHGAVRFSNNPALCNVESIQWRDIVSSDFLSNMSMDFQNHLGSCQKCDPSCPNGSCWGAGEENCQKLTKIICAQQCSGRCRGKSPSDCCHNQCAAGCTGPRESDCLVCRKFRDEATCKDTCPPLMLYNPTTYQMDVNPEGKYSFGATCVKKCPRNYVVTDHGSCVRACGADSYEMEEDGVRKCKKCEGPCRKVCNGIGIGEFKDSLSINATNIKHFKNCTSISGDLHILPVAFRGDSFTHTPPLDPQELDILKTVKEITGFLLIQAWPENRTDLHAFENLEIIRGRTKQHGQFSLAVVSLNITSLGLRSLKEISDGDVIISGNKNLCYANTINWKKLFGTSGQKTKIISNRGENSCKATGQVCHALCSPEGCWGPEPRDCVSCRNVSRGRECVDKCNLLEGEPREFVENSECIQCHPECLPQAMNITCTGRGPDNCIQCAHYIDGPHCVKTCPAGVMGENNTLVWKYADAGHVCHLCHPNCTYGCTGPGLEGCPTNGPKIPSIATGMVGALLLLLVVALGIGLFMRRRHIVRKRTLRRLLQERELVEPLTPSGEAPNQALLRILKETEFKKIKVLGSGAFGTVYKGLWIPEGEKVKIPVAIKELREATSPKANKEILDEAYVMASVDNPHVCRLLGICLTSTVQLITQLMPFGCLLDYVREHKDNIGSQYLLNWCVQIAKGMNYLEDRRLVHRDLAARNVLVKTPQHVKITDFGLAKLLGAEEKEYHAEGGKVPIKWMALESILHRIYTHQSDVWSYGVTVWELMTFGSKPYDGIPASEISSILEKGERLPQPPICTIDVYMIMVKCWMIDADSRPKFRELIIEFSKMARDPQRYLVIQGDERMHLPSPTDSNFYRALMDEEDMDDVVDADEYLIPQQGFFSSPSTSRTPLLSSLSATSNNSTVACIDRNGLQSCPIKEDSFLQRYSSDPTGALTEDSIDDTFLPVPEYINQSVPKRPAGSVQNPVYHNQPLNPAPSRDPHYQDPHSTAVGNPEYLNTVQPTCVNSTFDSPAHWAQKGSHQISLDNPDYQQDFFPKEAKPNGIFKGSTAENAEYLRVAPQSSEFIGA

[6] = biological target: Cyclin-dependent kinase 14 (Homo sapiens) (UniProt O94921); test: Selectivity interaction (KinomeScan (DiscoverX)) EUB0000045b CDK14
Chain of Cyclin-dependent kinase 14 (Homo sapiens) (O94921 whole entry, canonical isoform): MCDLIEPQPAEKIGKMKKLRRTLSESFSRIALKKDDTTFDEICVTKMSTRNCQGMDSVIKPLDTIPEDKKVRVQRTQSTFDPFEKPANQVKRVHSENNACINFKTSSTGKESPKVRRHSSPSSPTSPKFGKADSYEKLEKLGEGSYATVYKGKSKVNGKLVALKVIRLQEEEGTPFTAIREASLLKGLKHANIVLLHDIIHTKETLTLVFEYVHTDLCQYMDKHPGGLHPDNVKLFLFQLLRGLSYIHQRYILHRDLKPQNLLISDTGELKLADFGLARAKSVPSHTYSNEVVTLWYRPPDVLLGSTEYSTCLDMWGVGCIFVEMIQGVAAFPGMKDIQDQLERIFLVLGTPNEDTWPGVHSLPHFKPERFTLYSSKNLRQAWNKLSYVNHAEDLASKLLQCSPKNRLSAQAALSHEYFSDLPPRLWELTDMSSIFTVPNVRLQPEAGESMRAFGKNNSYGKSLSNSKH

[7] = biological target: Casein kinase I isoform delta (Homo sapiens, UniProt P48730); test: Selectivity interaction (KinomeScan (DiscoverX)) EUB0001079a CSNK1D; conditions: at 1 µM
Chain of Casein kinase I isoform delta (P48730 whole entry, looked up, canonical isoform): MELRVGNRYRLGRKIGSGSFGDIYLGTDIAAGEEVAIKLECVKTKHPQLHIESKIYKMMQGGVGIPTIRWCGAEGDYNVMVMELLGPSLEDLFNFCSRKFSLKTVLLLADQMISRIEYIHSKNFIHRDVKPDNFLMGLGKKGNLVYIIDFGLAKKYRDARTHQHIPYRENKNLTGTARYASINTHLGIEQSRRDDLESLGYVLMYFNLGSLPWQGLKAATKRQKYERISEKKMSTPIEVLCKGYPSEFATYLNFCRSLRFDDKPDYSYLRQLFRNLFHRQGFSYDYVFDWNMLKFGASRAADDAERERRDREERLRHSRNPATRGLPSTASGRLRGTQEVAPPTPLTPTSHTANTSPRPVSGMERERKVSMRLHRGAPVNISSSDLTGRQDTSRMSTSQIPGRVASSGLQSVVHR

[8] = biological target: Protein kinase C theta type (Homo sapiens, UniProt Q04759); test: Selectivity interaction (Kinase panel (Z-LYTE Assay)) EUB0001632a PRKCQ; conditions: at 10 µM
Chain of Protein kinase C theta type (Q04759 whole entry, looked up): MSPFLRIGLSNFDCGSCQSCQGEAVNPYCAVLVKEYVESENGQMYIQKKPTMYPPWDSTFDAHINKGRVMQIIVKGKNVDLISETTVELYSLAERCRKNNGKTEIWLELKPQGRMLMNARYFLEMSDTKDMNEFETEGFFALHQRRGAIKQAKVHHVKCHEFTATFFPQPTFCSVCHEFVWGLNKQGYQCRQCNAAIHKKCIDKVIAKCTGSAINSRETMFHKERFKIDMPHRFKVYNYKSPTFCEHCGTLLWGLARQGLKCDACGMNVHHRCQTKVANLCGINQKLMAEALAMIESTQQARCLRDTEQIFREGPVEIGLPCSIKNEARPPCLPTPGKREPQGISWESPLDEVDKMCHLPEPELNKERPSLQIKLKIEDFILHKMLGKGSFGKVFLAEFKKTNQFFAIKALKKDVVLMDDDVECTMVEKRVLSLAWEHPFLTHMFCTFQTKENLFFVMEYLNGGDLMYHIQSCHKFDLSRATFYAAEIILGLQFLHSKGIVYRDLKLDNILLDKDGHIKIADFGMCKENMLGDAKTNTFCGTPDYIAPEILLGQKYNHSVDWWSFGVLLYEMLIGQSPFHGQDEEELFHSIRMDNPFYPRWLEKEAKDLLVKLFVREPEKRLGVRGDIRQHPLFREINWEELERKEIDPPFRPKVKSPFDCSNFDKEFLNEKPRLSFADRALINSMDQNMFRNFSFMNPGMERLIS

[9] = biological target: Ribosomal protein S6 kinase alpha-6 (Homo sapiens, UniProt Q9UK32); test: Selectivity interaction (Kinase panel (Z-LYTE Assay)) EUB0001632a RPS6KA6; conditions: at 10 µM
Chain of Ribosomal protein S6 kinase alpha-6 (Q9UK32 whole entry): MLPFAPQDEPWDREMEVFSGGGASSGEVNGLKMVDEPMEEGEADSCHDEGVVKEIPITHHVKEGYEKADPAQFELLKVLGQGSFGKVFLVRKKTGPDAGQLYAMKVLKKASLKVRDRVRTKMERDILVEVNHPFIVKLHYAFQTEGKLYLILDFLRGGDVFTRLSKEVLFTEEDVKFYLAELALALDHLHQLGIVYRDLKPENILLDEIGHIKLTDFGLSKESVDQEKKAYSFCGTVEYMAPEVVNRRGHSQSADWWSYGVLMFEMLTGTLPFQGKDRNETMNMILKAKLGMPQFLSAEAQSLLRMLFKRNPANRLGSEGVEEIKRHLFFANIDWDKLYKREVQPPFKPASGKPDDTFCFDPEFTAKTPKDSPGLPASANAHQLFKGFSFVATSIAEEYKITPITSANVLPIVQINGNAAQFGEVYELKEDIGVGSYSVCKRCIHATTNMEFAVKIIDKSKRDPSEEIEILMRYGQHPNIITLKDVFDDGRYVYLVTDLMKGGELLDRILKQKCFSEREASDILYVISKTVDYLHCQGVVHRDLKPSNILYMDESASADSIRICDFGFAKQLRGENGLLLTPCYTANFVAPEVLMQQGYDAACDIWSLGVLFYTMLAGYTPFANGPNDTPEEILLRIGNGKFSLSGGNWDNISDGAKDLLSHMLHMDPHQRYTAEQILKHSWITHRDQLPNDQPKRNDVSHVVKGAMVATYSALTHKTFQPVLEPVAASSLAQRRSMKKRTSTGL

[10] = biological target: T2, Serine/threonine-protein kinase Sgk2 (Homo sapiens) (UniProt Q9HBY8); test: Selectivity interaction (Kinase panel (Z-LYTE Assay)) EUB0001632a SGK2; conditions: at 10 µM
T2 sequence (whole entry): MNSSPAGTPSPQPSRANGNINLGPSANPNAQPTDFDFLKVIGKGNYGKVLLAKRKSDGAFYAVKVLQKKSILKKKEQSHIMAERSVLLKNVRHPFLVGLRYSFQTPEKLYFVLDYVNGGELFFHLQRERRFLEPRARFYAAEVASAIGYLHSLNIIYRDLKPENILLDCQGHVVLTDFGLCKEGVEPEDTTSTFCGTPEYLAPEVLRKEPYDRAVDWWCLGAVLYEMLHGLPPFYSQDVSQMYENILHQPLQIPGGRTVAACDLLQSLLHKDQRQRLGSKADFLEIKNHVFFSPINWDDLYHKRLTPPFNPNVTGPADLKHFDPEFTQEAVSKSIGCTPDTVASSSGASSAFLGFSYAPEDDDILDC

Insulin receptor = Insulin receptor (Homo sapiens, UniProt P06213); test: Selectivity interaction (Kinase screening (Nanosyn)) EUB0000604a INSR
[11] = biological target: 3',5'-cyclic-AMP phosphodiesterase 4D (Homo sapiens) (UniProt Q08499); test: Selectivity interaction (Safety Panel 44tm (Eurofins)) EUB0000162b PDE4D; conditions: at 10 µM
[12] = biological target: T3, Dual specificity tyrosine-phosphorylation-regulated kinase 2 (Homo sapiens) (UniProt Q92630); test: Selectivity interaction (KinomeScan (DiscoverX)) EUB0001049a DYRK2; conditions: at 1 µM
T3 sequence (whole entry): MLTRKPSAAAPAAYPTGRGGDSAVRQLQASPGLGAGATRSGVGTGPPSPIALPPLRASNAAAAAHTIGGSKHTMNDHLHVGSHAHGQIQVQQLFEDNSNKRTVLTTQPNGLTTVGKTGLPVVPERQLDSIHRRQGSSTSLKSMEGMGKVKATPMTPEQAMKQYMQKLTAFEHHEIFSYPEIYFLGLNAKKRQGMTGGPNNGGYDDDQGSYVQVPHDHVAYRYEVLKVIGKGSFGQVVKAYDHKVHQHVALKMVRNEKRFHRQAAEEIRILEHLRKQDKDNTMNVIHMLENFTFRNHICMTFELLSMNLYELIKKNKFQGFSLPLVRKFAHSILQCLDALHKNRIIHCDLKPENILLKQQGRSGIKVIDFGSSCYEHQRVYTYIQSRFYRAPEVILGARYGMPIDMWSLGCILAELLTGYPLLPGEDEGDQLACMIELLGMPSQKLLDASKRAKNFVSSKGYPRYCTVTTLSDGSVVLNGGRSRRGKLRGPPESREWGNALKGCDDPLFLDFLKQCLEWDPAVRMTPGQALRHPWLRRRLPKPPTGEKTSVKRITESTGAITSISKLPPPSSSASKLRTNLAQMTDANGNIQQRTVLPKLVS

[13] = biological target: NT-3 growth factor receptor (Homo sapiens, UniProt Q16288); test: Selectivity interaction (ProQinase) EUB0000171b NTRK3
Chain of NT-3 growth factor receptor (Q16288 32-839 limits assumed): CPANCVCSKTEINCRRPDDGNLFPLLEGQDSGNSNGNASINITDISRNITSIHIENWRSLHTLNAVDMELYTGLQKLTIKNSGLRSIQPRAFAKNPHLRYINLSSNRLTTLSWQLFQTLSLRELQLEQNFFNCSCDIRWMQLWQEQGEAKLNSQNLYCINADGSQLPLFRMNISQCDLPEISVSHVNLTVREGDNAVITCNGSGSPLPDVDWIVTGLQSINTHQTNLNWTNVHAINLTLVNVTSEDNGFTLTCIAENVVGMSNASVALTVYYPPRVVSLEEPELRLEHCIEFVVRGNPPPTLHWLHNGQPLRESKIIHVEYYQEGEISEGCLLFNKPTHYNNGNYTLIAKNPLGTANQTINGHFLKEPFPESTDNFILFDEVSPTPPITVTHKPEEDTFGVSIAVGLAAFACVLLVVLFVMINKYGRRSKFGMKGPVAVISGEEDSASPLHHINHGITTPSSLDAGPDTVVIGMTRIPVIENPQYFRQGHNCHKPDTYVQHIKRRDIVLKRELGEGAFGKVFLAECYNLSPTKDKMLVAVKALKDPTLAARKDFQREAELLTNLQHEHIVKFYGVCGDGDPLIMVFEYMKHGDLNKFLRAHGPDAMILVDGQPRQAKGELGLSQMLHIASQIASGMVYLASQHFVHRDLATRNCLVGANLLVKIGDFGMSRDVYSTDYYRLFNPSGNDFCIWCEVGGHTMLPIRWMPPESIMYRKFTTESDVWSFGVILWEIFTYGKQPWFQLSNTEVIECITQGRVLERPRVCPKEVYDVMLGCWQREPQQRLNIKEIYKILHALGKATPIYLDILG

[14] = biological target: Serine/threonine-protein kinase ATR (Homo sapiens) (UniProt Q13535); test: Selectivity interaction (ActivX KiNativ screen (ex vivo kinase selectivity in human PBMCs)) EUB0001619a ATR; assay type: cell-based; conditions: PBMC, at 1 µM
[15] = biological target: Serine/threonine-protein kinase WNK2 (Homo sapiens) (UniProt Q9Y3S1); test: Selectivity interaction (ActivX KiNativ screen (ex vivo kinase selectivity in human PBMCs)) EUB0001619a WNK2; assay type: cell-based; conditions: PBMC, at 1 µM
[16] = biological target: Glycogen synthase kinase-3 beta (Homo sapiens, UniProt P49841); test: Selectivity interaction (Enzymatic assay) EUB0001199aCl GSK3B
Chain of Glycogen synthase kinase-3 beta (P49841 whole entry): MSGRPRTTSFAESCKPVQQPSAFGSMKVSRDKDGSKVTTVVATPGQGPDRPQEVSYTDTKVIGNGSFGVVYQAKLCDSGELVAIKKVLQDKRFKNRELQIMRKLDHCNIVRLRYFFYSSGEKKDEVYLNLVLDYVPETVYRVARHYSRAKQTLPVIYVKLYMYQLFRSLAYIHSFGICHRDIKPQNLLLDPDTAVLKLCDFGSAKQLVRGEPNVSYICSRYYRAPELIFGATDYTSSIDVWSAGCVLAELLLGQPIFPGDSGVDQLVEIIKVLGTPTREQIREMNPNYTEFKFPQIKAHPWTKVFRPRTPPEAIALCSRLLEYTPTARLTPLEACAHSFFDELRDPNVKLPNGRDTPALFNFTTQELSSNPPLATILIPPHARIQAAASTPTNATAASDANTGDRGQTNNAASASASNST

[17] = biological target: Tyrosine-protein kinase JAK1 (Homo sapiens, UniProt P23458); test: Selectivity interaction (ActivX KiNativ screen (kinase selectivity in THP-1 cell lysates)) EUB0000639a JAK1; assay type: subcellular; conditions: lysate, at 0.2 µM
[18] = biological target: Tyrosine-protein kinase Lyn (Homo sapiens, UniProt P07948); conditions: at 10 µM

C=CC(=O)Nc1ccc(C(=O)Nc2[nH]nc3c2CN(C(=O)N[C@H](CN(C)C)c2ccccc2)C3(C)C)cc1
% of engagement [1]: -6.3%

COc1cc(N(C)c2ccnc3ccc(C(F)(F)F)cc23)cc(OC)c1OC
% binding [2]: 97%

COCC(=O)NC/C=C/c1ccc2ncnc(Nc3ccc(Oc4ccc(C)nc4)c(C)c3)c2c1 [CP-724714]
% of control [3]: 100%
% of control [4]: 100%
% of control [5]: 0.2%

C=CC(=O)Nc1cc(-n2c(=O)ccc3cnc4ccc(-c5ccc(NS(C)(=O)=O)cc5)cc4c32)ccc1C
% of control ([6]; at 1 µM): 100%
% of control ([6]; at 10 µM): 72%

Nc1cnc(N2CCc3cc(S(=O)(=O)Nc4c(F)cc(Cl)cc4F)cc(N4CCCC4=O)c32)nc1 [TP-020n]
% of control [7]: 98%

Cn1cc(-n2cnc3c(NCc4nc5cc(Cl)c(Cl)cc5[nH]4)nc(N4CCOCC4)nc32)cn1
% of control [8]: 14.5%
% of control [9]: 9.97%
% of control [10]: 8.85%

Cc1cnc(Nc2ccc(F)cc2Cl)nc1-c1c[nH]c(C(=O)N[C@H](CO)c2cccc(Cl)c2)c1
% of inhibition (Insulin receptor): 4%

CN(C)C(=O)Cn1cc(-c2ccc(-c3cncc4ccccc34)cc2)cn1
% of control [11]: 54%

COc1cc(Nc2nc(C)cc(-c3cnn4nc(OC)ccc34)n2)cc(C(F)(F)F)c1
% of control [12]: 79%

C=CC(=O)Nc1cccc(C(=O)Nc2ccc(Nc3cc(-c4[nH]c(SC)nc4C)ccn3)cc2)c1
% of control ([13]; at 1 µM): 99%
% of control ([13]; at 5 µM): 79%

N#Cc1cccc(-c2c[nH]c3ncnc(N4CCOCC4)c23)c1
% of inhibition [14]: 25%
% of inhibition [15]: -6%

CN1Cc2nccc(-c3cn(C)nc3-c3ccc(F)cc3)c2C1=O
IC50 [16]: 10 µM

CC[C@@H]1[C@H](F)C(=O)N[C@@H]1COc1nccc2cc(C(N)=O)c(OC)cc12 [ZIMLOVISERTIB]
% of inhibition [17]: -1.1%

CCN(CC)CCCCNc1ncc2cc(-c3cc(OC)cc(OC)c3)c(NC(=O)NC(C)(C)C)nc2n1
% of control [18]: 100%
